Eight compounds from ChEMBL document CHEMBL4184257, “Design, synthesis and antibacterial evaluation of honokiol derivatives” (2018) can be followed below.

In brackets after ≈: the same amount, converted by molar mass. Activity calls are given as the source filed them.

The test system of assay [1] is Staphylococcus aureus. The assay can be described thus: Antibacterial activity against Staphylococcus aureus ATCC 33591 incubated at 37 degC for 20 hrs by agar dilution method. The assay is classed as functional. The settings on record: ATCC 33591, 20 h. In general terms: Agar dilution tests growth on a series of plates holding different concentrations.
The subject of assay [2] is Staphylococcus aureus. The assay can be described thus: Bactericidal activity against Staphylococcus aureus ATCC 25923 assessed as bacterial load at 4 times MIC measured within 2 hrs post dose by time kill curve assay. The assay is classed as functional.
The subject of assay [3] is Staphylococcus aureus. The assay can be described thus: Bactericidal activity against Staphylococcus aureus ATCC 25923 at 4 times MIC incubated for 24 hrs by time kill curve assay. The assay is classed as functional, organism-based.
Assay [4] deals with Streptococcus pyogenes. The experiment in a line: Antibacterial activity against Streptococcus pyogenes ATCC 19615 incubated at 37 degC for 20 hrs by agar dilution method. Format: functional. The settings on record: ATCC 19615, 20 h.
Assay [5] concerns Klebsiella pneumoniae. The assay can be described thus: Antibacterial activity against Klebsiella pneumoniae CMCC 46117 incubated at 37 degC for 20 hrs by agar dilution method. The assay is classed as functional. As to conditions: CMCC 46117, 20 h.
Assay [6] relates to Staphylococcus epidermidis. The assay can be described thus: Antibacterial activity against Staphylococcus epidermidis ATCC 12228 incubated at 37 degC for 20 hrs by agar dilution method. Format: functional. The settings on record: ATCC 12228, 20 h.
The subject of assay [7] is Staphylococcus aureus. The assay can be described thus: Induction of cell wall destruction in Staphylococcus aureus ATCC 25923 at 1 times MIC incubated for 0.5 hrs Gram staining based assay. The assay is classed as functional, organism-based.
The subject of assay [8] is Escherichia coli. The assay can be described thus: Antibacterial activity against Escherichia coli ATCC 25922 incubated at 37 degC for 20 hrs by standard broth microdilution method. The assay is classed as functional. The settings on record: ATCC 25922, 20 h. (In general: Dilution methods test growth across graded concentrations, often in twofold steps.)
For assay [9], the system named is Staphylococcus aureus. The assay can be described thus: Antibacterial activity against Staphylococcus aureus ATCC 29213 incubated at 37 degC for 20 hrs by agar dilution method. The assay is classed as functional. As to conditions: ATCC 29213, 20 h.
The test system of assay [10] is Staphylococcus aureus. The assay can be described thus: Bacteriostatic activity against Staphylococcus aureus ATCC 25923 assessed as bacterial load at 1 times MIC incubated for 24 hrs by time kill curve assay. Format: functional.
The subject of assay [11] is Staphylococcus aureus. The experiment in a line: Antibacterial activity against Staphylococcus aureus ATCC 43300 incubated at 37 degC for 20 hrs by agar dilution method. Format: functional. As to conditions: ATCC 43300, 20 h.
Assay [12] relates to Pseudomonas aeruginosa. The assay can be described thus: Antibacterial activity against Pseudomonas aeruginosa ATCC 9027 incubated at 37 degC for 20 hrs by agar dilution method. Format: functional. As to conditions: ATCC 9027, 20 h.
In assay [13] the test system is Staphylococcus aureus. The assay can be described thus: Antibacterial activity against Staphylococcus aureus CMCC 26003 incubated at 37 degC for 20 hrs by agar dilution method. The assay is classed as functional. As to conditions: CMCC 26003, 20 h.
Assay [14] concerns Klebsiella pneumoniae. The experiment in a line: Antibacterial activity against Klebsiella pneumoniae ATCC 700603 incubated at 37 degC for 20 hrs by agar dilution method. The settings on record: ATCC 700603, 20 h. Format: functional.
Assay [15] deals with Staphylococcus aureus. The experiment in a line: Bacteriostatic activity against Staphylococcus aureus ATCC 25923 at 1 times MIC incubated for 24 hrs by time kill curve assay. The assay is classed as functional, organism-based.
Assay [16] concerns Staphylococcus aureus. The assay can be described thus: Antibacterial activity against Staphylococcus aureus ATCC 25923 incubated at 37 degC for 20 hrs by standard broth microdilution method. The assay is classed as functional. As to conditions: ATCC 25923, 20 h.
The subject of assay [17] is Pseudomonas aeruginosa. The assay can be described thus: Antibacterial activity against Pseudomonas aeruginosa ATCC 27853 incubated at 37 degC for 20 hrs by agar dilution method. The assay is classed as functional. The settings on record: ATCC 27853, 20 h.
In assay [18] the test system is Klebsiella pneumoniae. The experiment in a line: Antibacterial activity against Klebsiella pneumoniae ATCC 4352 incubated at 37 degC for 20 hrs by agar dilution method. Format: functional. As to conditions: ATCC 4352, 20 h.
The subject of assay [19] is Staphylococcus aureus. The assay can be described thus: Induction of cell wall destruction in Staphylococcus aureus ATCC 25923 at 4 times MIC incubated for 1 hr Gram staining based assay. The assay is classed as functional, organism-based.
The subject of assay [20] is Staphylococcus epidermidis. The experiment in a line: Antibacterial activity against Staphylococcus albus AS1.3374 incubated at 37 degC for 20 hrs by agar dilution method. The assay is classed as functional. As to conditions: AS1.3374, 20 h.
Assay [21] concerns Pseudomonas aeruginosa. The assay can be described thus: Antibacterial activity against Pseudomonas aeruginosa CMCC 10104 incubated at 37 degC for 20 hrs by agar dilution method. Format: functional. As to conditions: CMCC 10104, 20 h.
Assay [22] concerns Enterococcus faecalis. The experiment in a line: Antibacterial activity against Enterococcus faecalis ATCC 33186 incubated at 37 degC for 20 hrs by agar dilution method. The assay is classed as functional. As to conditions: ATCC 33186, 20 h.
Assay [23] deals with Staphylococcus aureus. The experiment in a line: Antibacterial activity against Staphylococcus aureus ATCC 6538 incubated at 37 degC for 20 hrs by agar dilution method. The assay is classed as functional. As to conditions: ATCC 6538, 20 h.
In assay [24] the test system is Enterococcus faecalis. The experiment in a line: Antibacterial activity against Enterococcus faecalis ATCC 35667 incubated at 37 degC for 20 hrs by agar dilution method. Format: functional. As to conditions: ATCC 35667, 20 h.

As usually defined, the MIC is the smallest concentration in the dilution series that meets the test's criterion for growth inhibition. One may read the MIC90 as an inhibitory concentration at the 90% level, which refers to growth in some studies and to a panel of isolates in others. Read a low MIC90 as greater potency. Turning to `C=CCc1cc(CN2CCC(N3CCC(N)CC3)CC2)c(O)c(-c2ccc(O)c(CC=C)c2)c1`, the MIC was found to be 8 µg/mL (≈ 17.3 µM) in assay [1]; 8 µg/mL (≈ 17.3 µM) in assay [4]; 8 µg/mL (≈ 17.3 µM) in assay [5]; 8 µg/mL (≈ 17.3 µM) in [6]; 16 µg/mL (≈ 34.7 µM) in assay [8]; 8 µg/mL (≈ 17.3 µM) in assay [9]. Besides, the MIC in assay [11] is 8 µg/mL (≈ 17.3 µM); in [12], 64 µg/mL (≈ 139 µM); in assay [13], 8 µg/mL (≈ 17.3 µM); in assay [14], 64 µg/mL (≈ 139 µM); in assay [16], 8 µg/mL (≈ 17.3 µM); in assay [17], 64 µg/mL (≈ 139 µM). Further, the MIC came to 8 µg/mL (≈ 17.3 µM) in assay [18]; 8 µg/mL (≈ 17.3 µM) in assay [20]; 64 µg/mL (≈ 139 µM) in [21]; 8 µg/mL (≈ 17.3 µM) in assay [22]; 8 µg/mL (≈ 17.3 µM) in [23]; 8 µg/mL (≈ 17.3 µM) in [24]. Also, the Activity in [2] was 0 log10CFU/ml; in assay [3] it was “Dose-dependent effect”; in assay [10], 4 - 5 log10CFU/ml; in assay [15] it was “Dose-dependent effect”. For the same compound, the result in assay [7] and in assay [19] was Active. Moreover, the figures for the MIC90 in assay [8] and in assay [16] were 16 µg/mL (≈ 34.7 µM) and 8 µg/mL (≈ 17.3 µM), respectively.
Consider `C=CCc1cc(CO)c(O)c(-c2ccc(O)c(CC=C)c2)c1`, for which the results for the MIC90 in [8] and in assay [16] were more than 256 µg/mL and 32 µg/mL (≈ 108 µM), respectively.
`C=CCc1cc(CN2CCN(C(C)=O)CC2)c(O)c(-c2ccc(O)c(CC=C)c2)c1`: the MIC90 in assay [8] and in assay [16] was more than 256 µg/mL each time.
As for `C=CCc1cc(CN2CCN(C(C)C)CC2)c(O)c(-c2ccc(O)c(CC=C)c2)c1`, the MIC90 was 128 µg/mL (≈ 315 µM) in [8] and more than 256 µg/mL in [16].
On the same counts, the results for `C=CCc1cc(CN2CCCC(NC(=O)OC(C)(C)C)C2)c(O)c(-c2ccc(O)c(CC=C)c2)c1` (stereo not drawn) are more than 256 µg/mL and more than 256 µg/mL.
On to `C=CCc1cc(CN2CCN(C(=O)OC(C)(C)C)CC2)c(O)c(-c2ccc(O)c(CC=C)c2)c1`, for which the MIC90 in assay [8] and in assay [16] was more than 256 µg/mL in each case.
As for `C=CCc1cc(CN2CCN(CCOC)CC2)c(O)c(-c2ccc(O)c(CC=C)c2)c1`, the MIC90 in [8] and in assay [16] was more than 256 µg/mL throughout.
For `C=CCc1cc(CN2CCC(N3CCCC(N)C3)CC2)c(O)c(-c2ccc(O)c(CC=C)c2)c1` (stereo not drawn), the MIC in [1] turned out to be 16 µg/mL (≈ 34.7 µM); in [4] it was 32 µg/mL (≈ 69.3 µM); in assay [5], 32 µg/mL (≈ 69.3 µM); in assay [6] it was 16 µg/mL (≈ 34.7 µM); in assay [8], 128 µg/mL (≈ 277 µM); in assay [9], 16 µg/mL (≈ 34.7 µM). The MIC in [11] was 16 µg/mL (≈ 34.7 µM); in assay [12], more than 256 µg/mL; in assay [13] it was 16 µg/mL (≈ 34.7 µM); in [14], more than 256 µg/mL; in assay [16] it was 16 µg/mL (≈ 34.7 µM); in [17], more than 256 µg/mL. The minimum inhibitory concentration (MIC) in [18] was determined as 16 µg/mL (≈ 34.7 µM); in [20], 16 µg/mL (≈ 34.7 µM); in [21], 64 µg/mL (≈ 139 µM); in [22], 16 µg/mL (≈ 34.7 µM); in assay [23], 16 µg/mL (≈ 34.7 µM); in assay [24], 16 µg/mL (≈ 34.7 µM). For the same compound, the MIC90 amounted to 128 µg/mL (≈ 277 µM) in assay [8] and 16 µg/mL (≈ 34.7 µM) in assay [16].
